Measured values reported in article PMC8534050, “Discovery of a Potent and Highly Isoform-Selective Inhibitor of the Neglected Ribosomal Protein S6 Kinase Beta 2 (S6K2)” (Cancers, 2021).
Blank lines part the entries; values can stand above or below the compound they belong to.

Legend:
[1] = molecular target: T1, S6K2 (Homo sapiens, UniProt Q9UBS0); experiment: HotSpot kinase assay (Reaction Biology); format: biochemical; settings: apparent IC50; five-point; compound 2 triplicate, ± standard deviation
T1 construct: purchased Reaction Biology Corp
Procedure: The provided IC50 values were measured using the HotSpot^TM Kinase Profiling assay and conducted at Reaction Biology Corp. in their facilities in Malvern, PA, USA.

[2] = test system: S6K1; settings: cited from earlier work
[3] = test system: S6K2; design: method as in PMID 20704563; settings: cited from earlier work
[4] = molecular target: T2, WNK1 (Homo sapiens, UniProt Q9H4A3); experiment: DSF thermal shift assay; format: binding; settings: read-out: ΔTm
T2 construct: purchased in-house DSF (thermal shift) panel per Fedorov et al
Procedure: (§1) Differences in the melting temperature (ΔTm) were measured as described by Fedorov et al.. Purified proteins were buffered in 25 mM HEPES (pH 7.5), 500 mM NaCl and were assayed in a 384-well plate with a final protein concentration of 2 μM in 10 μL assay volume. Inhibitors were added to a final concentration of 10 μM using an ECHO 550 acoustic dispenser (Labcyte, San José, CA, USA). As a fluorescence probe, SYPRO-Orange (Molecular Probes, Eugene, OR, USA) was added in a 1:5000 dilution. Filters for excitation and emission were set to 465 nm and 590 nm, respectively. The temperature was increased from 25 °C with 3 °C/min to a final temperature of 95 °C, while scanning, using the QuantStudio5 (Applied Biosystems, Waltham, MA, USA). Data were analyzed through Boltzmann equation in the Protein Thermal Shift software (Applied Biosystems, Waltham, MA, USA). Samples were measured in technical duplicates.

[5] = molecular target: T3, STK10 (Homo sapiens, UniProt O94804); experiment: DSF thermal shift assay; format: binding; settings: read-out: ΔTm
T3 construct: purchased in-house DSF (thermal shift) panel per Fedorov et al
Procedure: as §1

[6] = molecular target: T4, EPHA7 (Homo sapiens, UniProt Q15375); experiment: DSF thermal shift assay; format: binding; settings: read-out: ΔTm
T4 construct: purchased in-house DSF (thermal shift) panel per Fedorov et al
Procedure: as §1

[7] = molecular target: T5, DCAMKL1 (Homo sapiens, UniProt O15075); experiment: DSF thermal shift assay; format: binding; settings: read-out: ΔTm
T5 construct: purchased in-house DSF (thermal shift) panel per Fedorov et al
Procedure: as §1

[8] = molecular target: T6, RPS6K5 (Homo sapiens, UniProt O75582); experiment: DSF thermal shift assay; format: binding; settings: read-out: ΔTm
T6 construct: purchased in-house DSF (thermal shift) panel per Fedorov et al
Procedure: as §1

[9] = molecular target: T7, EPHB3 (Homo sapiens, UniProt P54753); experiment: DSF thermal shift assay; format: binding; settings: read-out: ΔTm
T7 construct: purchased in-house DSF (thermal shift) panel per Fedorov et al
Procedure: as §1

[10] = molecular target: T8, DAPK1 (Homo sapiens, UniProt P53355); experiment: DSF thermal shift assay; format: binding; settings: read-out: ΔTm
T8 construct: purchased in-house DSF (thermal shift) panel per Fedorov et al
Procedure: as §1

[11] = molecular target: T9, NEK2 (Homo sapiens, UniProt P51955); experiment: DSF thermal shift assay; format: binding; settings: read-out: ΔTm
T9 construct: purchased in-house DSF (thermal shift) panel per Fedorov et al
Procedure: as §1

[12] = molecular target: T10, MAPK13 (Homo sapiens, UniProt O15264); experiment: DSF thermal shift assay; format: binding; settings: read-out: ΔTm
T10 construct: purchased in-house DSF (thermal shift) panel per Fedorov et al
Procedure: as §1

[13] = molecular target: T11, STK3 (Homo sapiens, UniProt Q13188); experiment: DSF thermal shift assay; format: binding; settings: read-out: ΔTm
T11 construct: purchased in-house DSF (thermal shift) panel per Fedorov et al
Procedure: as §1

[14] = molecular target: T12, STK39 (Homo sapiens, UniProt Q9UEW8); experiment: DSF thermal shift assay; format: binding; settings: read-out: ΔTm
T12 construct: purchased in-house DSF (thermal shift) panel per Fedorov et al; IC50 follow-up at Reaction Biology Corp
Procedure: as §1

[15] = molecular target: T13, MAPK6 (Homo sapiens, UniProt Q16659); experiment: DSF thermal shift assay; format: binding; settings: read-out: ΔTm
T13 construct: purchased in-house DSF (thermal shift) panel per Fedorov et al
Procedure: as §1

[16] = molecular target: T14, PLK4 (Homo sapiens, UniProt O00444); experiment: DSF thermal shift assay; format: binding; settings: read-out: ΔTm
T14 construct: purchased in-house DSF (thermal shift) panel per Fedorov et al
Procedure: as §1

[17] = molecular target: T15, CDC42BPA (Homo sapiens, UniProt Q5VT25); experiment: DSF thermal shift assay; format: binding; settings: read-out: ΔTm
T15 construct: purchased in-house DSF (thermal shift) panel per Fedorov et al
Procedure: as §1

[18] = molecular target: T16, CAMK4 (Homo sapiens, UniProt Q16566); experiment: DSF thermal shift assay; format: binding; settings: read-out: ΔTm
T16 construct: purchased in-house DSF (thermal shift) panel per Fedorov et al
Procedure: as §1

[19] = molecular target: T17, PAK1 (Homo sapiens, UniProt Q13153); experiment: DSF thermal shift assay; format: binding; settings: read-out: ΔTm
T17 construct: purchased in-house DSF (thermal shift) panel per Fedorov et al
Procedure: as §1

[20] = molecular target: T18, OSR1 (Homo sapiens, UniProt O95747); experiment: DSF thermal shift assay; format: binding; settings: read-out: ΔTm
T18 construct: purchased in-house DSF (thermal shift) panel per Fedorov et al
Procedure: as §1

[21] = molecular target: T19, SLK (Homo sapiens, UniProt Q9H2G2); experiment: DSF thermal shift assay; format: binding; settings: read-out: ΔTm
T19 construct: purchased in-house DSF (thermal shift) panel per Fedorov et al
Procedure: as §1

[22] = molecular target: T20, MERTK (Homo sapiens, UniProt Q12866); experiment: DSF thermal shift assay; format: binding; settings: read-out: ΔTm
T20 construct: purchased in-house DSF (thermal shift) panel per Fedorov et al
Procedure: as §1

[23] = molecular target: T21, CAMKK2 (Homo sapiens, UniProt Q96RR4); experiment: DSF thermal shift assay; format: binding; settings: read-out: ΔTm
T21 construct: purchased in-house DSF (thermal shift) panel per Fedorov et al
Procedure: as §1

[24] = Glutathione (GSH) stability assay (HPLC); settings: glutathione (GSH, 5 mM) in MeCN/PBS buffer
Procedure: The reaction temperature was chosen to be 40 °C.
Glutathione (GSH) Stability Assay
• 0 min: 40% MeOH, 60% phosphate buffer pH 2.3;
• 20 min: 85% MeOH, 15% phosphate buffer pH 2.3;
• 9 min: 95% MeOH, 5% phosphate buffer pH 2.3;
• 10 min: 95% MeOH, 5% phosphate buffer pH 2.3;

T18 sequence (O95747 whole entry): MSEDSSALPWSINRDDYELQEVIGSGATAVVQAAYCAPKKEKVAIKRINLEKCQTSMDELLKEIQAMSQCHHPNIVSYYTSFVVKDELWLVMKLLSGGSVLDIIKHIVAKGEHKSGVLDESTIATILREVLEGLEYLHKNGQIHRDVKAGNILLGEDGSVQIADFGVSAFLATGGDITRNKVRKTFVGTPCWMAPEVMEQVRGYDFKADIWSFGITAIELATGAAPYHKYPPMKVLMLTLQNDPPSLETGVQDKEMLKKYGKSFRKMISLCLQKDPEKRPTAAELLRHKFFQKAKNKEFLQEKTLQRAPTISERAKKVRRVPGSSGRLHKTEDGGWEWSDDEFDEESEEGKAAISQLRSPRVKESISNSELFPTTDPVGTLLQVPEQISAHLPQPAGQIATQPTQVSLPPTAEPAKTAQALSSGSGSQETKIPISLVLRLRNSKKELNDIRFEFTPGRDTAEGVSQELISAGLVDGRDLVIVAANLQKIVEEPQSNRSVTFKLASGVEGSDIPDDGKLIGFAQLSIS
T8 sequence (P53355 whole entry): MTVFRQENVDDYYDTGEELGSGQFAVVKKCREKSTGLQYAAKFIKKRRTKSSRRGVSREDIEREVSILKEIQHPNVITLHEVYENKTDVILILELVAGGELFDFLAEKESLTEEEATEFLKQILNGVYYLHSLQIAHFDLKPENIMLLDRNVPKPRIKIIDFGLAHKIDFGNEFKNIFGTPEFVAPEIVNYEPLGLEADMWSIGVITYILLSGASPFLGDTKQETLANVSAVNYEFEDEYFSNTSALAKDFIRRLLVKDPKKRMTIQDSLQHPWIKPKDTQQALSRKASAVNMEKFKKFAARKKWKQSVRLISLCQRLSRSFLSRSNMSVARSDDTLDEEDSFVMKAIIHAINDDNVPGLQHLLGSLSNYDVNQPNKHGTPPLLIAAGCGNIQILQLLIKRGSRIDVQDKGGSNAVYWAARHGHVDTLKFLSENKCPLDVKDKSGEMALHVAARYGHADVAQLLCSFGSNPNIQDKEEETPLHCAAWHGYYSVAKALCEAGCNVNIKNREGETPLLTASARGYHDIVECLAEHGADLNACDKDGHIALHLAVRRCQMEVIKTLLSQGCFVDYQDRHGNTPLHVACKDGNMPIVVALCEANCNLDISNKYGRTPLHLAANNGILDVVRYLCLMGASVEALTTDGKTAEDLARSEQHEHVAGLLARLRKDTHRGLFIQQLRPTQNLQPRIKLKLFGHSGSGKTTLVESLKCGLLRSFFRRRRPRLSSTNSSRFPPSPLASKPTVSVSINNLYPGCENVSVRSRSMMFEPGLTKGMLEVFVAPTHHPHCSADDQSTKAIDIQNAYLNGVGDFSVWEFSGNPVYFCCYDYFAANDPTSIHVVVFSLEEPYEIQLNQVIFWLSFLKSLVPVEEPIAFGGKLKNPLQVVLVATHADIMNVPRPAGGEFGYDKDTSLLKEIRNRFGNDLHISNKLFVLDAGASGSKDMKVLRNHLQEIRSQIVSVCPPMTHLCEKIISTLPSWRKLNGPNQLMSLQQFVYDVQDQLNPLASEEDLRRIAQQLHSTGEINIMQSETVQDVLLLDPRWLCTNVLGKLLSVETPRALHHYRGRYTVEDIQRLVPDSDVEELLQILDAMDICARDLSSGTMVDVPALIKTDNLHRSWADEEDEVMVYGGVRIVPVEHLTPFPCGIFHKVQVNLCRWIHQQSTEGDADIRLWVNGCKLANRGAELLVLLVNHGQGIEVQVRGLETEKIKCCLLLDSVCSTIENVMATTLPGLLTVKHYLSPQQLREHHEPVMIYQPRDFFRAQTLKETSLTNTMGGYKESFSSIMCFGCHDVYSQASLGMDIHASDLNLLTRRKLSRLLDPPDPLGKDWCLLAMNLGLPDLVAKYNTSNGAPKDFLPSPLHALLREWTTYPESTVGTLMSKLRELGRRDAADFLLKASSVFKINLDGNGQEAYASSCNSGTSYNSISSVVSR
T6 sequence (O75582 whole entry): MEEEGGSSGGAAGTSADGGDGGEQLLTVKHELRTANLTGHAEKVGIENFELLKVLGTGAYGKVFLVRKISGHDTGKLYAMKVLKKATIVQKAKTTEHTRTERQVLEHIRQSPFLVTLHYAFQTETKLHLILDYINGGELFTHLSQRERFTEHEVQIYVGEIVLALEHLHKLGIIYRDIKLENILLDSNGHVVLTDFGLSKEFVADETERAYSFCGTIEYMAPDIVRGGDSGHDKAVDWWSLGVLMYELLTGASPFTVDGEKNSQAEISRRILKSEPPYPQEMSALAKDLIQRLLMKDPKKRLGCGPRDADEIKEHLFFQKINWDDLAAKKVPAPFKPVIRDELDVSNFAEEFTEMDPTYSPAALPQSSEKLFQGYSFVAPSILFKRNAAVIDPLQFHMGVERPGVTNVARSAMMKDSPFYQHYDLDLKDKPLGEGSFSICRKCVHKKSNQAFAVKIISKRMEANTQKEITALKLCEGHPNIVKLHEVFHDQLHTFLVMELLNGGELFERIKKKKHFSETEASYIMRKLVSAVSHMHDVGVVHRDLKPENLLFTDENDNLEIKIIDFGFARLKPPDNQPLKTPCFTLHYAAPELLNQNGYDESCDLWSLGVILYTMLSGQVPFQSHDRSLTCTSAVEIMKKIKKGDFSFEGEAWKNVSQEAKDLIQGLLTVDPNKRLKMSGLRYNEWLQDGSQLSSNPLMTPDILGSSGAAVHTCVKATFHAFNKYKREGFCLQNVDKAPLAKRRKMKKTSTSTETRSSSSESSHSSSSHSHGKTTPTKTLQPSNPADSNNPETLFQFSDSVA
T15 sequence (Q5VT25 whole entry): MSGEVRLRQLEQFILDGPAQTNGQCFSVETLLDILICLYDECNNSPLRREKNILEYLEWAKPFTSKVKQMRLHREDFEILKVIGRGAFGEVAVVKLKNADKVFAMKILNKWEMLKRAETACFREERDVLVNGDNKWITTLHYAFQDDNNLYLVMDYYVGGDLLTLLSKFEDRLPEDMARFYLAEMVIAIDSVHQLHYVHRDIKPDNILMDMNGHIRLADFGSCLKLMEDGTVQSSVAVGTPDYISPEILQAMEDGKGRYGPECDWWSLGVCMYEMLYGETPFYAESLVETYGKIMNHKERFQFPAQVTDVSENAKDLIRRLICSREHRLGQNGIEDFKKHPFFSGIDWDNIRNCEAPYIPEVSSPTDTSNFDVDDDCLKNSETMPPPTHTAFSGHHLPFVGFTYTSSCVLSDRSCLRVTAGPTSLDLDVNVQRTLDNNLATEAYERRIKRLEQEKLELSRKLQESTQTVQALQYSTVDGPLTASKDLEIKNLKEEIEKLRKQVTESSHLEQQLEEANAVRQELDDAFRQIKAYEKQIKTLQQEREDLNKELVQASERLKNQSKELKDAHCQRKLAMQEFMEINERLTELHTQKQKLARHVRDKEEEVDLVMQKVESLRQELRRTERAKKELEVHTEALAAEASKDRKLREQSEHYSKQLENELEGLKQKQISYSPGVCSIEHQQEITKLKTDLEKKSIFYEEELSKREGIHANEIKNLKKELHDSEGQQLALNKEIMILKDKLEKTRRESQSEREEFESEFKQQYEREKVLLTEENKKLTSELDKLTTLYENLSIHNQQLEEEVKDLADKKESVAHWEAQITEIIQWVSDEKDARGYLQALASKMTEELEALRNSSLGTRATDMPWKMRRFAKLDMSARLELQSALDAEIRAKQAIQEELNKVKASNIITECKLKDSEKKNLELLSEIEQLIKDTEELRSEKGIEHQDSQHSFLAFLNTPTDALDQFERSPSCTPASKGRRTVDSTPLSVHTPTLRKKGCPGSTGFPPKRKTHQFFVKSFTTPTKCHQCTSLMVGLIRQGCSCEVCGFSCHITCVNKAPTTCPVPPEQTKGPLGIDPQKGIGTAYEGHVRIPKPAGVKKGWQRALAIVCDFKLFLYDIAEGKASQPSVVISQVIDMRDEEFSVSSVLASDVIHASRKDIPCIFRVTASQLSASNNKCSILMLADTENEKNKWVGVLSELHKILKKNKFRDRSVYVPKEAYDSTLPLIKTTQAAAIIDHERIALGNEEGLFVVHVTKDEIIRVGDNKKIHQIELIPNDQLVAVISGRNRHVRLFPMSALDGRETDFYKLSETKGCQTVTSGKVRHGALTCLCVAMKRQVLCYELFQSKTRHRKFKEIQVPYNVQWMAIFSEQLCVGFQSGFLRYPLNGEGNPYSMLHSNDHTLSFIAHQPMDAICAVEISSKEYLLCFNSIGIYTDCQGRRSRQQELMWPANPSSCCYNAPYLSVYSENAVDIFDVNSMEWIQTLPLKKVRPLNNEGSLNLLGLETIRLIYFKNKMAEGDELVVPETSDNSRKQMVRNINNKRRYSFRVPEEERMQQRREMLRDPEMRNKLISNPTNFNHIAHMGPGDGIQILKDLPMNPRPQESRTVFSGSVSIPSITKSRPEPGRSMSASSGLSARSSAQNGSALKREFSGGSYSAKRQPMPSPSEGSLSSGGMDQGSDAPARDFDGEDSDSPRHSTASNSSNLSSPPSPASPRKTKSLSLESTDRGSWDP
T9 sequence (P51955 whole entry): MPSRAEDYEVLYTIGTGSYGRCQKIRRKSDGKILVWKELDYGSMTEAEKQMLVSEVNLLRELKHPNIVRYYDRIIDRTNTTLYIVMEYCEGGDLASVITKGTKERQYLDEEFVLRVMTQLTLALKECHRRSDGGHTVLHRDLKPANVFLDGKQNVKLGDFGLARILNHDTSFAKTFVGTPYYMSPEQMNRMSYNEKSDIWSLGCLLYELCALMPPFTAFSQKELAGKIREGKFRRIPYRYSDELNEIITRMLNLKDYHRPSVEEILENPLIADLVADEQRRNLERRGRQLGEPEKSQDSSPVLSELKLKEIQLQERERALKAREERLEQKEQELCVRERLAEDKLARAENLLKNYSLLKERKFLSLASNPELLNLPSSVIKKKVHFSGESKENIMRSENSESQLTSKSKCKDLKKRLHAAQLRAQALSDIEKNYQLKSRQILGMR

IC50 [1]: > 5000 nM
Compound: CCc1cnc(Nc2ncccc2[N+](=O)[O-])nc1N1CCN(Cc2nc3cc(C(F)(F)F)ccc3[nH]2)CC1 [Compound 21]

Compound: CCc1cncnc1N1CCN(Cc2nc3ccc(C(F)(F)F)cc3[nH]2)CC1 [PF-4708671]
IC50 [2]: 160 nM
Ki [2]: 20 nM
IC50 [3]: 65000 nM

Compound: CN[C@@H]1C[C@H]2O[C@@](C)([C@@H]1OC)n1c3ccccc3c3c4c(c5c6ccccc6n2c5c31)C(=O)NC4 [Staurosporine, reference compound]
ΔTm at 10 µM [4]: 1.4 °C
ΔTm at 10 µM [5]: 24.4 °C
ΔTm at 10 µM [6]: 12.7 °C
ΔTm at 10 µM [7]: 6.3 °C
ΔTm at 10 µM [8]: 15 °C
ΔTm at 10 µM [9]: 6.7 °C
ΔTm at 10 µM [10]: 9.6 °C
ΔTm at 10 µM [11]: 2.2 °C
ΔTm at 10 µM [12]: 6.2 °C
ΔTm at 10 µM [13]: 14.8 °C
ΔTm at 10 µM [14]: 9.3 °C
ΔTm at 10 µM [15]: 1 °C
ΔTm at 10 µM [16]: 19 °C
ΔTm at 10 µM [17]: 2.2 °C
ΔTm at 10 µM [18]: 8.9 °C
ΔTm at 10 µM [19]: 7.4 °C
ΔTm at 10 µM [20]: 7.6 °C
ΔTm at 10 µM [21]: 20.8 °C
ΔTm at 10 µM [22]: 5.9 °C
ΔTm at 10 µM [23]: 25.1 °C

half-life at […] [24]: 5 h
Compound: CN(C)C/C=C/C(=O)Nc1cc2c(Nc3ccc(F)c(Cl)c3)ncnc2cc1O[C@H]1CCOC1 [Afatinib]
